Test results taken from the supplement of paper PMC13380429.

Legend:
Details in all cases: 72 h
U2OS [1] = assay: drug sensitivity score (DSS) for viability; higher = more toxic; extreme values may be limits of the assay
Calu-3 [2] = assay: as above
Caco-2 [3] = assay: as above
Vero E6 [4] = assay: as above
HepG2 [5] = assay: as above
U2OS [6] = assay: relative viability EC50 (midpoint between 100% and the lowest measured viability); higher = less toxic
Vero E6 [7] = assay: as above
HepG2 [8] = assay: as above
U2OS [9] = assay: cell viability relative to DMSO; higher = less toxic
Calu-3 [10] = assay: as above
Caco-2 [11] = assay: as above
Vero E6 [12] = assay: as above
HepG2 [13] = assay: as above
Caco-2 [14] = assay: relative viability EC50 (midpoint between 100% and the lowest measured viability); higher = less toxic

| SMILES | drug sensitivity score (U2OS [1]) | drug sensitivity score (Calu-3 [2]) | drug sensitivity score (Caco-2 [3]) | drug sensitivity score (Vero E6 [4]) | drug sensitivity score (HepG2 [5]) | relative viability EC50 (U2OS [6]) [nM] | relative viability EC50 (Vero E6 [7]) [nM] | relative viability EC50 (HepG2 [8]) [nM] | cell viability (U2OS [9]; 1 nM) [%] | cell viability (U2OS [9]; 10 nM) [%] | cell viability (U2OS [9]; 100 nM) [%] | cell viability (U2OS [9]; 1000 nM) [%] | cell viability (U2OS [9]; 10000 nM) [%] | cell viability (Calu-3 [10]; 1 nM) [%] | cell viability (Calu-3 [10]; 10 nM) [%] | cell viability (Calu-3 [10]; 100 nM) [%] | cell viability (Calu-3 [10]; 1000 nM) [%] | cell viability (Calu-3 [10]; 10000 nM) [%] | cell viability (Caco-2 [11]; 1 nM) [%] | cell viability (Caco-2 [11]; 10 nM) [%] | cell viability (Caco-2 [11]; 100 nM) [%] | cell viability (Caco-2 [11]; 1000 nM) [%] | cell viability (Caco-2 [11]; 10000 nM) [%] | cell viability (Vero E6 [12]; 1 nM) [%] | cell viability (Vero E6 [12]; 10 nM) [%] | cell viability (Vero E6 [12]; 100 nM) [%] | cell viability (Vero E6 [12]; 1000 nM) [%] | cell viability (Vero E6 [12]; 10000 nM) [%] | cell viability (HepG2 [13]; 1 nM) [%] | cell viability (HepG2 [13]; 10 nM) [%] | cell viability (HepG2 [13]; 100 nM) [%] | cell viability (HepG2 [13]; 1000 nM) [%] | cell viability (HepG2 [13]; 10000 nM) [%] | relative viability EC50 (Caco-2 [14]) [nM] |
| --- | --- | --- | --- | --- | --- | --- | --- | --- | --- | --- | --- | --- | --- | --- | --- | --- | --- | --- | --- | --- | --- | --- | --- | --- | --- | --- | --- | --- | --- | --- | --- | --- | --- | --- |
| COc1cc2c(cc1O)CC[C@@H]1[C@@H]2CC[C@]2(C)[C@@H](O)CC[C@@H]12 [2-methoxyestradiol] | 5.9 | 2.1 | 4.9 | 4.3 | 2.8 | 1150 | 2500 | 3990 | 96.4 | 95.1 | 102 | 77.8 | 46.5 | 103 | 107 | 106 | 98.9 | 60.2 | 99.1 | 105 | 101 | 77.4 | 58.1 | 99.6 | 97.8 | 98.9 | 94.8 | 36.2 | 96.1 | 99.9 | 91.7 | 115 | 33.8 |  |
| Cn1cccc1/C=C1\C(=O)NC(=O)c2ccccc21 | 3.7 | 2.7 | 1.8 | 0.9 | 6.5 | 3280 |  | 1840 | 110 | 105 | 106 | 101 | 29.8 | 98.6 | 97.5 | 102 | 91 | 69 | 106 | 103 | 108 | 109 | 55.2 | 104 | 108 | 104 | 106 | 71.4 | 83.2 | 103 | 72.1 | 83 | 21.2 |  |
| C/C(=C\c1csc(C)n1)[C@@H]1C[C@@H]2O[C@]2(C)CCC[C@H](C)[C@H](O)[C@@H](C)C(=O)C(C)(C)[C@@H](O)CC(=O)N1 [ixabepilone] | 10.9 | 7.2 | 13.6 | 9.1 | 21.7 | 556 | 493 | 72.1 | 99.7 | 99.3 | 101 | 41.3 | 28 | 108 | 108 | 88.1 | 67.2 | 60.8 | 101 | 98.4 | 65.2 | 48.8 | 49.2 | 108 | 108 | 84.6 | 60.2 | 36.5 | 107 | 103 | 43.6 | 33.6 | 17.3 | 66.4 |
| CC(C)N1CCN(c2ccc(OCC3COC(Cn4cncn4)(c4ccc(Cl)cc4Cl)O3)cc2)CC1 (stereo unspecified) [terconazole] | 0 | 2.6 | 0.9 | 1.9 | 3.3 | > 10000 | > 10000 |  | 97.4 | 104 | 105 | 104 | 93.8 | 103 | 105 | 89.1 | 97.8 | 54.7 | 90.6 | 98.2 | 94.3 | 108 | 70.9 | 116 | 96.8 | 106 | 90.8 | 76.8 | 124 | 121 | 124 | 89.8 | 62.6 |  |
